We go through three sequences from US6809175B1, “Cadherin derived growth factor and its use” (Prof. Dr. Wolf-Georg Forssmann, priority 1997, dated 2004).

Experiment [1] relates to primary osteoblasts. The experiment is described as follows: Proliferation assay on primary osteoblasts ([3H]thymidine or BrdU incorporation). In kind it is cell-based. The note with it: primary osteoblasts from fetal rat calvarias; serum-free medium with 1 mg/ml BSA; established for both native and synthetic peptide. The method, then:
The isolation of OB-CDGF was based on its biological activity in a proliferation assay of the primary osteoblasts. Thus, aliquots of each of the individual chromatographic stages described under Example 1 were freeze-dried and then subjected to a biological assay. The fractions which gave a positive signal were respectively subjected to further purification.
The assay measures the proliferation of the cells after having been kept in serum-free medium with 1 mg/ml bovine serum albumin, adding the samples and determining the incorporation of [^3H]thymidine or bromode-oxyuranosine (Brdu) after a further 48 hours. As a positive control, factors promoting bone growth, such as IGF or angiotensin, or fetal calf serum (FCS) are employed.
The experiments were performed by analogy with Pfeilschifter et al., Endocrinology 126, 703, 1990.
The recovery of primary osteoblasts was effected by sequential digestive separation from fetal rat calvarias using collagenase to obtain 5 cell fractions. The pooled cell fractions 3-5 were cultured in vitro. […]
At the end of the incubation time, the cell cultures were washed three times with 0.9% saline, and then 100 μl of liquid scintillator (OptiPhase Super-mix®, Wallac) was added to each well. Subsequently, the radioactivity incorporated in the DNA was measured in a liquid scintillation counter (1450 MicroBeta®, Wallac) in cpm. […]
In general terms: Uptake of a labelled nucleoside into DNA is a usual measure of proliferation.

Experiment [2] deals with primary osteoblasts. The experiment in a line: Intracellular calcium release in primary osteoblasts (Fura-2). In kind it is cell-based, rat. To be noted: single primary osteoblasts, Fura-2, fluorescence microscope; FIG. 6. As to the method: The intracellular signal chain for calcium^2+is measured on individual osteoblast cells. The intracellular Ca^2+activity of primary osteoblasts is measured with the Ca^2+-sensitive dye Fura-2 (Calbiochem, Bad Soden, Germany). The primary osteoblasts are cultured for one to three days on glass supports (diameter 30 mm) attached to a perfusion chamber of an inverted microscope (Axiomat IDC-UV, Zeiss, Gottingen, Germany). […]
The incubation is followed by an equilibration period of 10 to 15 min in which the cells are washed with KHB solution at 37° C. with a perfusion rate of about 5 ml/min. The Fura-2-charged primary osteoblasts are measured at 340, 360 and 380 nm with a high speed filter wheel (rotational speed 10 Hertz), a single-photon counter tube (Hamamatsu, Herrsching, Germany) and a xenon quartz lamp (XBO 75 W/OFR, Zeiss, Germany) as a light/impulse source. The Fura-2 emission is measured through a long-wave filter at 510 nm with an Ultrafluar 125 ×glycerol immersion lens. […] The ratio of photon emissions upon excitation at 340 and 380 nm is evaluated. […] The raw data are calculated, and 10 neighboring data points are averaged to obtain a time resolution of 1 Hz. The fluorescence at 360 nm is used to test calcium activity. All samples are dissolved in a phosphate buffer prior to the experiment and measured for at least 1 to 2 minutes. […]
(In general: Calcium assays in cells follow changes in intracellular calcium, usually with a dye or a luminescent sensor.)

A further experiment has as its system MAP kinase. The experiment in a line: Western blot detection of intracellular MAP kinase in primary osteoblasts. The class given is cell-based, rat. To be noted: primary osteoblasts incubated for different periods of time; FIG. 7. The method, then:
As already shown under Example 5, intracellular calcium release can be induced on primary osteoblasts by incubation with CDGF. To further characterize this physiological response, the further intracellular signal pathway (downstream from calcium) was examined. One possible signal transduction cascade is the activation of MAP kinase, an enzyme which plays an essential role in the signal transduction from the cytoplasm into the nucleus. Signal transmission involves phosphorylation of the enzyme which can be detected with a specific antibody. Thus, this protein can be detected in a Western blot, which is a measure of both the phosphorylation and the expression due to the stimulus. Primary osteoblasts were incubated with cadherin or controls (FCS) for different periods of time. Expression of the enzyme (MAP kinase) in the cell was detected in the Western blot by the addition of the antibody. The results are represented in FIG. 7. […] The longer the stimulation with OB-CDGF, the more clearly could the band be discerned. […] Therefrom, it can be concluded that CDGF acts through calcium in a receptor-mediated way, and the further signal processing proceeds via MAP kinase.

Experiment [3] relates to neonatal rat osteoblast monolayers. The experiment is described as follows: Binding assay of 125I-labeled OB-CDGF to osteoblasts. The note with it: confluent layers and extracellular matrix of neonatal rat osteoblasts; 2 hours at 4° C.; FIG. 5. The method, then:
The binding of the osteoproliferative peptides to neonatal rat osteoblast monolayers was effected with the use of ^125j-labeled peptides. Chloramine T was used for iodination. The specific activity of the peptides was 100,000 cpm/ng. The binding studies were performed on confluent layers and the extracellular matrix of a first passage of neonatal rat osteoblasts. The cells were incubated for 24 hours in serum-containing medium and then washed four times with PBS and incubated for 2 hoursat 4° C. in 250 μl of the assay buffer (20 mM HEPES, 0.1 mg/ml BSA, pH 7.0) with 80,000 cpm of the iodine-labeled peptide in the presence of different concentrations of the unlabeled peptide. The incubation buffer was then removed, and the cells washed four times with cold PBS and solubilized with 1 M NaOH. The cell-bound activity was determined using a gamma counter. The corresponding experimental results are represented in FIG. 5.

The subject of experiment [4] is primary cultures of neurons from spinal ganglia of chicken embryos. The experiment is described as follows: Survival-promoting effect on primary nerve cell cultures (cellular LDH level). The class given is cell-based. To be noted: neurons from spinal ganglia of chicken embryos (E10); cellular LDH level after 48 hours. As to the method: Primary Nerve Cell Cultures From Spinal Ganglia of Chicken Embryos (Embryo-Onal Development E10)
The preparation and cultivation is performed as described by Borasio G. D., John J., Wittinghofer A., Barde Y.-A., Sendtner M., Heumann R. (1989), Neuron 2, 1087-1096. To determine survival-promoting effects of active substances, determination of the cellular LDH level after an incubation time of 48 hours is employed. To this end, the culture medium is removed by tapping out the plate. Only the vital cells remain adhered to the bottom of the plate and can then be determined. To determine the LDH level, the LDH cytotoxicity test kit of Boehringer Mannheim (BM) is employed.
The cultures were used in duplicate in 96-well microtitration plates. On each plate, an NGF calibration curve is established in parallel, and the biological activity of the substances is expressed in pg/ml of NGF equivalents. As a low-molecular weight reference, the starurosporin derivative K252a is used in a parallel test in a concentration of 300 nmol/l.

As for “ERRGHLRPSFHGHHEKGKEGQVLQRS (listed as Homo sapiens) [OB-CDGF, peptide purified from human hemofiltrate and resynthesized; human cadherin-11 precursor propeptide, amino acids 26-51]”, in the experiment with primary osteoblasts [1], the “growth-promoting effect on primary osteoblasts (proliferation)” value was “dose-dependent growth-promoting effect”. Also, in the experiment on primary osteoblasts [2], the intracellular calcium concentration entry is listed as “intracellular calcium concentration increases”. Further, the “expression of intracellular MAP kinase (Western blot band)” value in the experiment on MAP kinase is given as “leads to expression of intracellular MAP kinase”. For the same sequence, the “displacement of labeled OB-CDGF by unlabeled OB-CDGF (specific binding)” value in experiment [3] is on record as “the level of specifically bound labeled OB-CDGF is reduced”.
“QPQPQQTLATEPRENVIHLPGQRSHFQRV (listed as Homo sapiens) [BR-CDGF, peptide corresponding to the CDGF region of cadherin-12 (BR-cadherin; N-cadherin-2)]”: in experiment [4], the “survival-promoting effect on primary neurons” value was “survival-promoting effect on these primary neurons in a concentration-dependent way”.
Consider “TLSTPLSKRTSGFPAKKRALELSGNSKNELNRS (listed as Homo sapiens) [CAD6-CDGF, peptide corresponding to the CDGF region of cadherin-6]”, for which the “survival-promoting effect on primary neurons” value in experiment [4] is “survival-promoting effect on these primary neurons in a concentration-dependent way”.
